{
  "source": "patent US20080102120A1",
  "about": "“Solid Pharmaceutical Composition Comprising Valsartan” (priority 2004, published 2008)",
  "test": "Particle size of valsartan by laser light scattering (Malvern Mastersizer MS 2000, suspension in vegetable oil)",
  "type": "physicochemical",
  "conditions": "for average particle size: Malvern Mastersizer MS 2000 software; for % of particles in the range of 0.02-50 μm: range 0.02-50 μm; for % of particles in the range of 0.02-100 μm: range 0.02-100 μm; for size that 50% of particles were larger than (D50): volume diameter",
  "source_text": "The term “particle size” as used herein refers to the volume diameter of valsartan particles, as determined by laser light scattering using a Malvern-Mastersizer Apparatus MS 2000. D50 means that 50% of particles (V/V) have a higher volume diameter than the indicated value. The term “valsartan particle” means a particle that contains valsartan or, preferably, a particle that essentially or completely consists of valsartan. The particles to be subjected to the particle size measurement are first suspended in vegetable oil (i.e. sunflower oil) and then subjected to a size determination in a Malvern Mastersizer MS 2000 instrument. Usually, 100-800 mg of substance are dispersed in 5-8 ml of vegetable oil. No solubilizers or surfactants are used. According to manufacturer's information, the Malvern Mastersizers allow for a measurement of particle size distributions in the range of 20 nm to 2000 μm, with a precision of better than 0.5%. Particle sizes are determined by measuring the angular distribution of laser light scattered by a homogeneous suspension of particles. The size distribution is determined from the light scattering data using the theory of light scattering developed by Gustav Mie. The following examples illustrate the invention and are not intended to restrict the scope of the invention in any way. In the following examples, the water content was determined as loss on drying on a Mettler Toledo HR73 halogen moisture analyzer. The particle size was determined in a Malvern Mastersizer MS 2000, using a suspension of valsartan in vegetable oil (sunflower oil of Oljarica Kranj).",
  "data": [
    {"molecule": "CCCCC(=O)N(Cc1ccc(-c2ccccc2-c2nnn[nH]2)cc1)[C@H](C(=O)O)C(C)C", "note": "[valsartan (A), N-(1-oxopentyl)-N-{4-[2-(1H-tetrazole-5-yl)phenyl]-benzyl}-L-valine]", "values": [
      {"measurement": "size that 10% of particles were larger than", "value": 304.3, "unit": "μm"},
      {"measurement": "size that 10% of particles were smaller than", "value": 10.3, "unit": "μm"},
      {"measurement": "average particle size", "value": 123, "unit": "μm"},
      {"measurement": "Particle size distribution, Volume % in range 0.01-2 μm", "value": 0.9, "unit": "Volume %"},
      {"measurement": "% of particles in the range of 0.02-50 μm", "value": 38.1, "unit": "%"},
      {"measurement": "% of particles in the range of 0.02-100 μm", "value": 58.1, "unit": "%"},
      {"measurement": "Particle size distribution, Volume % in range 2-5 μm", "value": 3.3, "unit": "Volume %"},
      {"measurement": "Particle size distribution, Volume % in range 5-10 μm", "value": 5.5, "unit": "Volume %"},
      {"measurement": "Particle size distribution, Volume % in range 10-20 μm", "value": 9.3, "unit": "Volume %"},
      {"measurement": "Particle size distribution, Volume % in range 20-50 μm", "value": 19.1, "unit": "Volume %"},
      {"measurement": "Particle size distribution, Volume % in range 50-100 μm", "value": 20.0, "unit": "Volume %"},
      {"measurement": "Particle size distribution, Volume % in range 100-150 μm", "value": 12.4, "unit": "Volume %"},
      {"measurement": "Particle size distribution, Volume % in range 150-800 μm", "value": 29.4, "unit": "Volume %"},
      {"measurement": "size that 50% of particles were larger than (D50)", "value": 76.6, "unit": "μm"}
    ]},
    {"molecule": "CCCCC(=O)N(Cc1ccc(-c2ccccc2-c2nnn[nH]2)cc1)[C@H](C(=O)O)C(C)C", "note": "[valsartan (B), N-(1-oxopentyl)-N-{4-[2-(1H-tetrazole-5-yl)phenyl]-benzyl}-L-valine]", "values": [
      {"measurement": "size that 10% of particles were larger than", "value": 460.8, "unit": "μm"},
      {"measurement": "size that 10% of particles were smaller than", "value": 34.7, "unit": "μm"},
      {"measurement": "average particle size", "value": 219, "unit": "μm"},
      {"measurement": "Particle size distribution, Volume % in range 0.01-2 μm", "value": 0.7, "unit": "Volume %"},
      {"measurement": "% of particles in the range of 0.02-50 μm", "value": 15.0, "unit": "%"},
      {"measurement": "% of particles in the range of 0.02-100 μm", "value": 30.0, "unit": "%"},
      {"measurement": "Particle size distribution, Volume % in range 2-5 μm", "value": 1.2, "unit": "Volume %"},
      {"measurement": "Particle size distribution, Volume % in range 5-10 μm", "value": 1.0, "unit": "Volume %"},
      {"measurement": "Particle size distribution, Volume % in range 10-20 μm", "value": 2.6, "unit": "Volume %"},
      {"measurement": "Particle size distribution, Volume % in range 20-50 μm", "value": 9.5, "unit": "Volume %"},
      {"measurement": "Particle size distribution, Volume % in range 50-100 μm", "value": 15.0, "unit": "Volume %"},
      {"measurement": "Particle size distribution, Volume % in range 100-150 μm", "value": 13.1, "unit": "Volume %"},
      {"measurement": "Particle size distribution, Volume % in range 150-800 μm", "value": 56.4, "unit": "Volume %"},
      {"measurement": "size that 50% of particles were larger than (D50)", "value": 179.1, "unit": "μm"}
    ]},
    {"molecule": "CCCCC(=O)N(Cc1ccc(-c2ccccc2-c2nnn[nH]2)cc1)[C@H](C(=O)O)C(C)C", "note": "[valsartan (C), N-(1-oxopentyl)-N-{4-[2-(1H-tetrazole-5-yl)phenyl]-benzyl}-L-valine]", "values": [
      {"measurement": "size that 10% of particles were larger than", "value": 136.2, "unit": "μm"},
      {"measurement": "size that 10% of particles were smaller than", "value": 8.2, "unit": "μm"},
      {"measurement": "average particle size", "value": 65, "unit": "μm"},
      {"measurement": "Particle size distribution, Volume % in range 0.01-2 μm", "value": 1.4, "unit": "Volume %"},
      {"measurement": "% of particles in the range of 0.02-56 μm", "setting": "range 0.02-56 μm as printed", "value": 47.2, "unit": "%"},
      {"measurement": "% of particles in the range of 0.02-100 μm", "value": 78.5, "unit": "%"},
      {"measurement": "Particle size distribution, Volume % in range 2-5 μm", "value": 4.8, "unit": "Volume %"},
      {"measurement": "Particle size distribution, Volume % in range 5-10 μm", "value": 5.7, "unit": "Volume %"},
      {"measurement": "Particle size distribution, Volume % in range 10-20 μm", "value": 9.4, "unit": "Volume %"},
      {"measurement": "Particle size distribution, Volume % in range 20-50 μm", "value": 25.9, "unit": "Volume %"},
      {"measurement": "Particle size distribution, Volume % in range 50-100 μm", "value": 31.3, "unit": "Volume %"},
      {"measurement": "Particle size distribution, Volume % in range 100-150 μm", "value": 14.1, "unit": "Volume %"},
      {"measurement": "Particle size distribution, Volume % in range 150-800 μm", "value": 7.3, "unit": "Volume %"},
      {"measurement": "size that 50% of particles were larger than (D50)", "value": 53.4, "unit": "μm"}
    ]}
  ]
}
